Experimental data published in patent US4760180A, “N-terminally substituted dipeptide amides” (priority 1986, dated 1988).
Where two headings read alike, the source gives them in different places.

Key:
[1] = molecular target: opiate receptors isolated from rat brain; format: binding
Protocol: Opiate Binding Assay. The test compounds were evaluated for their ability to displace the binding of ^3 H-Naloxone to opiate receptors isolated from rat brain. Male rats [Crl CD(SD)BR] obtained from Charles River Laboratories (Portage, Mich.) were sacrificed by cervical dislocation. A purified homogenate of receptor membranes was prepared from the brains according to the method described by Chang and Cuatrecasas. (K.-J. Chang and P. Cuatrecasas. Multiple Opiate Receptors: Enkephalins And Morphine Bind To Receptors Of Different Specificity. J. Biol. Chem. 254, 2610-2618 (1979).) The brains were homogenized in 10 volumes of 0.32M sucrose and centrifuged twice at 6,000xg for 15 minutes. Following centrifugation of the supernatants at 40,000xg for 30 minutes, the pellets were resuspended in 5mM Tris-HCl and then centrifuged at 6,000xg. The supernatant was centrifuged at 40,000xg. This resuspended pellet (5mM Tris HCl) was centrifuged twice. The final pellet was resuspended in 2 volumes of 50 mM tris HCl (pH 7.4). The homogenate was assayed for protein content according to the method of Itzhaki and Gill. (R. F. Itzhaki and D. M. Gill. A Micro-Biuret Method for Estimating Proteins. Anal. Biochem. 9, 401-410 (1964).
The binding of the test compounds to the receptor membrane preparation was measured using a modification of the method of Pert and Snyder. (C. B. Pert and S. H. Snyder. Properties of Opiate-Receptor Binding in Rat Brain. Proc. Natl. Acad. Sci. 70, 2243-2247 (1973). The receptor assay was run using final concentrations of 1 nM ^3 -H-Naloxone and 0.5 mg/ml of homogenate protein.
Levorphanol (1×10^-5 M) was used as the displacer for non-specific binding. Final concentration of the test compounds was 10^-5 M. The assay was run in 0.05M tris HCl (pH 7.4). Total assay volume was 1.0 ml.
Samples were incubated at 25° C. for 60 min., filtered over Whatman GF/C glass fiber filters and rinsed twice with 4 ml washes of ice-cold buffer. The filters were air-dried at 50° C. for 30 minutes. After drying, 10 ml of PCS was added to the vial and the radioactivity determined using a tracor analytic Mark III liquid scintillation counter with a counting efficiency of 48.
The IC50 value, the concentration of the test compounds which inhibited ^3 H-Naloxone specific binding to the opiate receptor by 50, were obtained from log-logit plots of concentration-response curves.

[2] = tested on: phenylbenzoquinone-induced writhing in mice; experiment: Writhing assay (phenylbenzoquinone); format: in vivo; conditions: 30 min before phenylbenzoquinone i.p.; for Writhing Mouse Oral: screening dose 10 mg/kg p.o. (intragastric); for Writhing Mouse Subc.: screening dose 10 mg/kg s.c.
Protocol: Writhing assay. Male Charles River albino mice (CD-1/HAM/1LR) weighing between 20 and 30 grams were used. Thirty minutes after subcutaneous or intragastric administration of the test compound (0.1 ml/10 gram body weight), 0.025(w/v) phenylbenzoquinone was injected intraperitoneally (0.1 ml/10 gram body weight). Five minutes later, each mouse was placed in a large glass beaker and the number of writhes that occurred in the subsequent ten minutes is counted. A writhe consisted of dorsoflexion of the back, extension of the hindlimbs, and strong contraction of the abdominal musculature. The test compound was considered to have produced analgesia in a mouse if the number of writhes elicited by phenylbenzoquinone was equal to or less than one-half the median number of writhes recorded for the saline-treated group that day. The results were expressed as the number of mice (out of a possible ten) in which the test compound produced analgesia. […] If the initial test dose of 10 mg/kg inhibited writhing in greater than 6 of IO mice, the effect of additional doses was evaluated and an ED50 value was calculated using a maximum likelihood function.

rat = conditions: injected directly into the brain of the rat; Belluzi et al., Nature 260, 625 (1976); cited from earlier work
[3] = inhibition of 1 nM 3H-Naloxone specific binding, rat brain membranes, screening concentration 10^-5 M

## 0-ethyl-2,6-dimethyl-DL-tyrosyl-N-(3-phenylpropyl)-D-alaninamide, acetate (salt), hydrochloride (4:3:5; [Example 5]
[1]; read-out: Opiate Binding IC50
  IC50: 130 nM
[2]
  Writhing Mouse Oral: Inactive
  Writhing Mouse Subc.: Active

## 2,6,dichlorotyrosyl-N-(3-phenylpropyl)-D-alaninamide, monohydrochloride [Example 23]
[1]; [3]
  IC50: 7.6 nM
[2]
  Writhing Mouse Oral: Active
  Writhing Mouse Subc.: Active

## Cc1cc(O)cc(C)c1CC(N)C(=O)N(C)[C@H](C)C(=O)NCCCc1ccccc1.Cl (mixture of isomers) [Example 15, 2,6-dimethyl-DL-tyrosyl-Nα-methyl-N-(3-phenylpropyl)-D-alaninamide, monohydrochloride]
[1]; [3]
  IC50: 0.6 nM
[2]
  Writhing Mouse Oral: Active
  Writhing Mouse Subc.: Active

## Cc1cc(O)cc(C)c1CC(N)C(=O)N[C@H](C)C(=O)N(C)CCCc1ccccc1.Cl (mixture of isomers) [Example 16, 2,6-dimethyl-DL-tyrosyl-N-methyl-N-(3-phenylpropyl)-D-alaninamide, monohydrochloride]
[1]; [3]
  IC50: 300 nM
[2]
  Writhing Mouse Oral: Inactive
  Writhing Mouse Subc.: Active

## COc1cc(C)c(CC(N)C(=O)N[C@H](C)C(=O)NCCCc2ccccc2)c(C)c1.Cl (mixture of isomers) [Example 2, 0,2,6-trimethyl-DL-tyrosyl-N-(3-phenylpropyl)-D-alaninamide, monohydrochloride]
[1]; [3]
  IC50: 290 nM
[2]
  Writhing Mouse Oral: Active
  Writhing Mouse Subc.: Active

## CNC(Cc1c(C)cc(OCc2ccccc2)cc1C)C(=O)N[C@H](C)C(=O)NCCCc1ccccc1.Cl (mixture of isomers) [Example 12, N,2,6-trimethyl-0-(phenylmethyl)-DL-tyrosyl-N-(3-phenylpropyl)-D-alaninamide, monohydrochloride]
[1]; [3]
  IC50: 3600 nM
[2]
  Writhing Mouse Oral: Active
  Writhing Mouse Subc.: Active

## COc1cc(C)c(C[C@H](N)C(=O)N[C@H](C)C(=O)NCCCc2ccccc2)c(C)c1 [Example 3, 0,2,6-trimethyltyrosyl-N-(3-phenylpropyl)-D-alaninamide]
[1]; [3]
  IC50: 420 nM
[2]
  Writhing Mouse Oral: Active
  Writhing Mouse Subc.: Active

## COc1cc(C)c(C[C@H](N)C(=O)N[C@H](C)C(=O)NCCCc2ccccc2)c(C)c1 [Example 4, 0,2,6-trimethyltyrosyl-N-(3-phenylpropyl)-D-alaninamide]
[1]; [3]
  IC50: 75 nM
[2]
  Writhing Mouse Oral: Active
  Writhing Mouse Subc.: Active

## Cc1cc(OC(C)C)cc(C)c1C[C@H](N)C(=O)N[C@H](C)C(=O)NCCCc1ccccc1.Cc1cc(OC(C)C)cc(C)c1C[C@H](N)C(=O)N[C@H](C)C(=O)NCCCc1ccccc1.Cc1cc(OC(C)C)cc(C)c1C[C@H](N)C(=O)N[C@H](C)C(=O)NCCCc1ccccc1.Cc1cc(OC(C)C)cc(C)c1C[C@H](N)C(=O)N[C@H](C)C(=O)NCCCc1ccccc1.Cl.Cl.Cl.Cl.Cl [Example 6, 2,6,dimethyl-0-(1-methylethyl)tyrosyl-N-(3-phenylpropyl)-D-alaninamide, hydrochloride (4:5)]
[1]; read-out: Opiate Binding IC50
  IC50: 47 nM
[2]
  Writhing Mouse Oral: Inactive
  Writhing Mouse Subc.: Inactive

## COc1ccc(C[C@H](N)C(=O)N[C@H](C)C(=O)NCCCc2ccccc2)cc1.Cl [Example 9, 0-methyl-L-tyrosyl-N-(3-phenylpropyl)-D-alaninamide, monohydrochloride]
[1]
  Opiate Binding IC50: Inactive
[2]
  Writhing Mouse Oral: Active
  Writhing Mouse Subc.: Active

## CN[C@@H](Cc1c(C)cc(OC)cc1C)C(=O)N[C@H](C)C(=O)NCCCc1ccccc1.Cl [Example 11, N,0,2,6,-tetramethyltyrosyl-N-(3-phenylpropyl)-D-alaninamide, monohydrochloride]
[1]; [3]
  IC50: 610 nM
[2]
  Writhing Mouse Oral: Active
  Writhing Mouse Subc.: Active

## CN[C@@H](Cc1c(C)cc(O)cc1C)C(=O)N[C@H](C)C(=O)NCCCc1ccccc1.Cl [Example 13, N,2,6-trimethyltyrosyl-N-(3-phenylpropyl)-D-alaninamide, monohydrochloride]
[1]; inhibition of 1 nM 3H-Naloxone specific binding, rat brain membranes, screening concentration 10^-5 M, monohydrochloride
  IC50: 1800 nM
[2]
  Writhing Mouse Oral: Inactive
  Writhing Mouse Subc.: Active

## CN[C@@H](Cc1c(C)cc(O)cc1C)C(=O)N[C@H](C)C(=O)NCCCc1ccccc1.CN[C@@H](Cc1c(C)cc(O)cc1C)C(=O)N[C@H](C)C(=O)NCCCc1ccccc1.CN[C@@H](Cc1c(C)cc(O)cc1C)C(=O)N[C@H](C)C(=O)NCCCc1ccccc1.CN[C@@H](Cc1c(C)cc(O)cc1C)C(=O)N[C@H](C)C(=O)NCCCc1ccccc1.Cl.Cl.Cl.Cl.Cl [Example 14, N,2,6-trimethyltyrosyl-N-(3-phenylpropyl)-D-alaninamide, hydrochloride (4:5)]
[1]; [3]
  IC50: 140 nM
[2]
  Writhing Mouse Oral: Inactive
  Writhing Mouse Subc.: Active

## Cc1cc(C)c(C[C@H](N)C(=O)N[C@H](C)C(=O)NCCCc2ccccc2)c(C)c1.Cl [Example 25, 2,4,6-trimethylphenylalanyl-N-(3-phenylpropyl)-D-alaninamide, monohydrochloride]
[1]; [3]
  IC50: 2000 nM
[2]
  Writhing Mouse Oral: Inactive
  Writhing Mouse Subc.: Active

## Cc1cc(OCc2ccccc2)cc(C)c1C[C@H](N)C(=O)N[C@H](C)C(=O)NCCCc1ccccc1.Cl [Example 27, 2,6-dimethyl-O-(phenylmethyl)-L-tyrosyl-N-(3-phenylpropyl)-D-alaninamide, monohydrochloride]
[1]; [3]
  IC50: 360 nM
[2]
  Writhing Mouse Oral: Active
  Writhing Mouse Subc.: Active

## Cc1cc(OCc2ccccc2)cc(C)c1C[C@@H](N)C(=O)N[C@H](C)C(=O)NCCCc1ccccc1.Cl [Example 28, 2,6-dimethyl-O-(phenylmethyl)-D-tyrosyl-N-(3-phenylpropyl)-D-alaninamide, hydrochloride]
[1]; [3]
  IC50: 22 nM
[2]
  Writhing Mouse Oral: Active
  Writhing Mouse Subc.: Active

## methionine enkephalin
rat
  analgesic activity: weak, fleeting analgesic activity
